# Measurements: PubChem BioAssay AID256 (DTP/NCI, 2004)
# Several values for one entry are separate records, joined by “and”; a condition that tells them apart may be missing. Identical values can stand only once. Toxic doses and inconclusive results are not listed.
# Tested on: CD2F1 mice, L1210 leukemia ip, survival T/C
# Test: NCI In Vivo Anticancer Drug Screen. Data for tumor model L1210 Leukemia (intraperitoneal) in CD2F1 (CDF1) mice
# Details: higher = longer survival
# How it was run: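 Antitumor effect is scored in animals hosting a serially transplanted tumor. Values compare compound-dosed animals against vehicle-only controls as a simple quotient.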
# [1] = endpoint: mean survival time, dose: 50.0 mg/kg/injection, schedule: Q04DX003 (ip), vehicle: saline
# [2] = endpoint: mean survival time, dose: 100.0 mg/kg/injection, schedule: Q01DX001 (ip), vehicle: saline
# [3] = endpoint: mean survival time, dose: 100.0 mg/kg/injection, schedule: Q04DX003 (ip), vehicle: saline with Tween-80
# [4] = endpoint: mean survival time, dose: 200.0 mg/kg/injection, schedule: Q04DX003 (ip), vehicle: saline with Tween-80
# [5] = endpoint: mean survival time, dose: 400.0 mg/kg/injection, schedule: Q04DX003 (ip), vehicle: saline with Tween-80
# [6] = endpoint: mean survival time, dose: 100.0 mg/kg/injection, schedule: Q04DX003 (ip), vehicle: saline
# [7] = endpoint: mean survival time, dose: 200.0 mg/kg/injection, schedule: Q04DX003 (ip), vehicle: saline
# [8] = endpoint: mean survival time, dose: 200.0 mg/kg/injection, schedule: Q01DX001 (ip), vehicle: saline
# [9] = endpoint: mean survival time, dose: 400.0 mg/kg/injection, schedule: Q01DX001 (ip), vehicle: saline
structure (smiles),measurement,setting,value
[N-]=[N+]=CC(=O)CCC(N)C(=O)O (stereo not given),T/C,"endpoint: mean survival time, dose: 0.03 mg/kg/injection, schedule: Q01DX009 (ip), vehicle: saline",119 % of control
same,T/C,"endpoint: mean survival time, dose: 0.05 mg/kg/injection, schedule: Q01DX009 (ip), vehicle: saline",116 % of control
same,T/C,"endpoint: mean survival time, dose: 0.05 mg/kg/injection, schedule: Q01DX009 (oral), vehicle: saline",107 % of control
same,T/C,"endpoint: mean survival time, dose: 0.05 mg/kg/injection, schedule: Q01DX009 (sc), vehicle: saline",117 % of control
same,T/C,"endpoint: mean survival time, dose: 0.1 mg/kg/injection, schedule: Q03DX003 (ip), vehicle: saline",115 % of control
same,T/C,"endpoint: mean survival time, dose: 0.1 mg/kg/injection, schedule: Q04DX003 (ip), vehicle: saline",117 % of control
same,T/C,"endpoint: mean survival time, dose: 0.2 mg/kg/injection, schedule: Q01DX009 (oral), vehicle: saline",116 % of control
same,T/C,"endpoint: mean survival time, dose: 0.2 mg/kg/injection, schedule: Q03DX003 (ip), vehicle: saline",118 % of control
same,T/C,"endpoint: mean survival time, dose: 0.2 mg/kg/injection, schedule: Q04DX003 (ip), vehicle: saline",123 % of control
same,T/C,"endpoint: mean survival time, dose: 0.4 mg/kg/injection, schedule: Q03HX024 (ip), vehicle: saline",162 % of control
same,T/C,"endpoint: mean survival time, dose: 0.8 mg/kg/injection, schedule: Q01DX009 (sc), vehicle: saline",90 % of control
same,T/C,"endpoint: mean survival time, dose: 0.8 mg/kg/injection, schedule: Q03HX024 (ip), vehicle: saline",102 % of control
same,T/C,"endpoint: mean survival time, dose: 1.6 mg/kg/injection, schedule: Q03HX024 (ip), vehicle: saline",105 % of control
same,T/C,"endpoint: mean survival time, dose: 3.1 mg/kg/injection, schedule: Q03HX016 (ip), vehicle: saline",119 % of control
same,T/C,"endpoint: mean survival time, dose: 6.25 mg/kg/injection, schedule: Q03HX008 (ip), vehicle: saline",118 % of control
same,T/C,"endpoint: mean survival time, dose: 6.25 mg/kg/injection, schedule: Q04DX003 (ip), vehicle: saline",156 % of control
same,T/C,"endpoint: mean survival time, dose: 25.0 mg/kg/injection, schedule: Q04DX003 (ip), vehicle: saline",155 % of control
same,T/C,"endpoint: mean survival time, dose: 25.0 mg/kg/injection, schedule: Q08DX002 (ip), vehicle: saline",150 % of control
same,T/C,"endpoint: mean survival time, dose: 50.0 mg/kg/injection, schedule: Q01DX001 (ip), vehicle: saline",151 % of control
same,T/C,[1],122 % of control
same,T/C,"endpoint: mean survival time, dose: 50.0 mg/kg/injection, schedule: Q08DX002 (ip), vehicle: saline",162 % of control
same,T/C,[2],151 % of control
same,T/C,"endpoint: mean survival time, dose: 100.0 mg/kg/injection, schedule: Q01DX001 (oral), vehicle: saline",115 % of control
same,T/C,"endpoint: mean survival time, dose: 100.0 mg/kg/injection, schedule: Q08DX002 (ip), vehicle: saline",155 % of control
same,T/C,"endpoint: mean survival time, dose: 200.0 mg/kg/injection, schedule: Q01DX001 (oral), vehicle: saline",88 % of control
same,T/C,"endpoint: mean survival time, dose: 200.0 mg/kg/injection, schedule: Q01DX001 (sc), vehicle: saline",110 % of control
same,T/C,"endpoint: mean survival time, dose: 13.0 micrograms/kg/injection, schedule: Q01DX Z (ip), vehicle: saline",96 % of control
same,T/C,"endpoint: mean survival time, dose: 25.0 micrograms/kg/injection, schedule: Q01DX Z (ip), vehicle: saline",94 % of control
same,T/C,"endpoint: mean survival time, dose: 50.0 micrograms/kg/injection, schedule: Q01DX Z (ip), vehicle: saline",100 % of control
same,T/C,"endpoint: mean survival time, dose: 93.7 micrograms/kg/injection, schedule: Q01DX009 (ip), vehicle: saline",124 % of control
same,T/C,"endpoint: median survival time, dose: 0.06 mg/kg/injection, schedule: Q01DX009 (ip), vehicle: saline",119 % of control
same,T/C,"endpoint: median survival time, dose: 0.25 mg/kg/injection, schedule: Q01DX009 (ip), vehicle: saline",118 % of control
same,T/C,"endpoint: median survival time, dose: 0.39 mg/kg/injection, schedule: Q01DX009 (ip), vehicle: saline",98 % of control
same,T/C,"endpoint: median survival time, dose: 0.5 mg/kg/injection, schedule: Q01DX009 (ip), vehicle: saline",102 % of control
same,T/C,"endpoint: median survival time, dose: 0.8 mg/kg/injection, schedule: Q01DX009 (ip), vehicle: saline",94 % of control and 98 % of control
same,T/C,"endpoint: median survival time, dose: 2.5 mg/kg/injection, schedule: Q04DX003 (ip), vehicle: saline",152 % of control
same,T/C,"endpoint: median survival time, dose: 5.0 mg/kg/injection, schedule: Q04DX003 (ip), vehicle: saline",153 % of control and 163 % of control
same,T/C,"endpoint: median survival time, dose: 10.0 mg/kg/injection, schedule: Q04DX003 (ip), vehicle: saline",167 % of control and 173 % of control
same,T/C,"endpoint: median survival time, dose: 20.0 mg/kg/injection, schedule: Q04DX003 (ip), vehicle: saline",184 % of control and 189 % of control
same,T/C,"endpoint: median survival time, dose: 40.0 mg/kg/injection, schedule: Q04DX003 (ip), vehicle: saline",195 % of control and 205 % of control
same,T/C,"endpoint: median survival time, dose: 100.0 mg/kg/injection, schedule: Q01DX001 (ip), vehicle: saline",114 % of control
CC(=O)[O][Pb]([O]C(C)=O)([c]1ccccc1)[c]1ccccc1,T/C,"endpoint: mean survival time, dose: 6.25 mg/kg/injection, schedule: Q01DX009 (ip), vehicle: Klucel (hydroxypropylcellulose) (HPC)",89 % of control and 97 % of control
same,T/C,"endpoint: mean survival time, dose: 12.5 mg/kg/injection, schedule: Q01DX009 (ip), vehicle: Klucel (hydroxypropylcellulose) (HPC)",87 % of control and 100 % of control
same,T/C,"endpoint: mean survival time, dose: 25.0 mg/kg/injection, schedule: Q01DX009 (ip), vehicle: Klucel (hydroxypropylcellulose) (HPC)",96 % of control
same,T/C,"endpoint: mean survival time, dose: 50.0 mg/kg/injection, schedule: Q01DX009 (ip), vehicle: Klucel (hydroxypropylcellulose) (HPC)",90 % of control and 95 % of control
same,T/C,"endpoint: mean survival time, dose: 100.0 mg/kg/injection, schedule: Q01DX009 (ip), vehicle: Klucel (hydroxypropylcellulose) (HPC)",92 % of control and 97 % of control
same,T/C,"endpoint: mean survival time, dose: 200.0 mg/kg/injection, schedule: Q01DX009 (ip), vehicle: Klucel (hydroxypropylcellulose) (HPC)",96 % of control
O=C1C(C(O)c2ccccc2)CCCC1C(O)c1ccccc1 (stereo not given),T/C,[3],89 % of control
same,T/C,[4],89 % of control
same,T/C,[5],92 % of control
O=c1cn[nH]c2c(Br)cc(Br)cc12,T/C,[3],103 % of control
same,T/C,[4],97 % of control
same,T/C,[5],97 % of control
CCOC(=O)C(=O)CC1=CC=CC2=NC(=O)CCN12,T/C,"endpoint: mean survival time, dose: 100.0 mg/kg/injection, schedule: Q01DX001 (ip), vehicle: saline with Tween-80",93 % of control
same,T/C,"endpoint: mean survival time, dose: 200.0 mg/kg/injection, schedule: Q01DX001 (ip), vehicle: saline with Tween-80",93 % of control
same,T/C,"endpoint: mean survival time, dose: 400.0 mg/kg/injection, schedule: Q01DX001 (ip), vehicle: saline with Tween-80",102 % of control
O=P(O)(O)CCc1ccccc1,T/C,[1],95 % of control
same,T/C,[6],90 % of control
same,T/C,[7],96 % of control
CCCCCCCCCCCCCC[N+]1(C)CCC[N+](C)(CCCCCCCCCCCCCC)CC1 (stereo not given),T/C,"endpoint: mean survival time, dose: 100.0 mg/kg/injection, schedule: Q04DX003 (ip), vehicle: other",103 % of control
same,T/C,"endpoint: mean survival time, dose: 200.0 mg/kg/injection, schedule: Q04DX003 (ip), vehicle: other",88 % of control
O=[N+]([O-])c1ccccc1N/N=C/c1ccccc1,T/C,[2],100 % of control
same,T/C,[8],97 % of control
same,T/C,[9],97 % of control
CC(=O)OC1CCCC(OC(C)=O)C1OC(C)=O (stereo not given),T/C,[6],107 % of control
same,T/C,[7],96 % of control
same,T/C,"endpoint: mean survival time, dose: 400.0 mg/kg/injection, schedule: Q04DX003 (ip), vehicle: saline",101 % of control
O=S1(=O)CCCN1c1ccccc1,T/C,[2],100 % of control
same,T/C,[8],106 % of control
same,T/C,[9],103 % of control
CCC(=O)c1cc(O)ccc1O,T/C,"endpoint: mean survival time, dose: 50.0 mg/kg/injection, schedule: Q01DX009 (ip), vehicle: other",109 % of control
same,T/C,[2],101 % of control
same,T/C,"endpoint: mean survival time, dose: 100.0 mg/kg/injection, schedule: Q01DX009 (ip), vehicle: other",109 % of control
same,T/C,[8],101 % of control
same,T/C,"endpoint: mean survival time, dose: 200.0 mg/kg/injection, schedule: Q01DX009 (ip), vehicle: other",108 % of control
same,T/C,[9],102 % of control
OC(COc1ccc(Cl)cc1Cl)COc1ccc(Cl)cc1Cl,T/C,[3],95 % of control
same,T/C,[4],92 % of control
same,T/C,[5],93 % of control
COc1ccn(C2OCCC(OC(C)=O)C2O)c(=O)n1 (stereo not given),T/C,"endpoint: median survival time, dose: 12.5 mg/kg/injection, schedule: Q01DX005 (ip), vehicle: alkali diluted with saline",107 % of control
same,T/C,"endpoint: median survival time, dose: 25.0 mg/kg/injection, schedule: Q01DX005 (ip), vehicle: alkali diluted with saline",120 % of control
same,T/C,"endpoint: median survival time, dose: 50.0 mg/kg/injection, schedule: Q01DX005 (ip), vehicle: alkali diluted with saline",120 % of control
same,T/C,"endpoint: median survival time, dose: 100.0 mg/kg/injection, schedule: Q01DX005 (ip), vehicle: alkali diluted with saline",102 % of control
same,T/C,"endpoint: median survival time, dose: 200.0 mg/kg/injection, schedule: Q01DX005 (ip), vehicle: alkali diluted with saline",109 % of control
NC1=C(Cl)C(=O)c2ccccc2C1=O,T/C,[3],102 % of control
O=C([O-])[O-].O=S(=O)(O)O.[Co+3].[NH2-].[NH2-].[NH2-].[NH2-],T/C,"endpoint: mean survival time, dose: 100.0 mg/kg/injection, schedule: Q04DX002 (ip), vehicle: saline with Tween-80",100 % of control
same,T/C,"endpoint: mean survival time, dose: 400.0 mg/kg/injection, schedule: Q04DX002 (ip), vehicle: saline with Tween-80",107 % of control
O=C(NC1CCC(NC(=O)N2CC2)CC1)N1CC1 (stereo not given),T/C,"endpoint: mean survival time, dose: 6.75 mg/kg/injection, schedule: Q01DX001 (ip), vehicle: carboxymethylcellulose (CMC)",164 % of control
same,T/C,"endpoint: mean survival time, dose: 10.0 mg/kg/injection, schedule: Q01DX001 (ip), vehicle: carboxymethylcellulose (CMC)",185 % of control
same,T/C,"endpoint: mean survival time, dose: 15.0 mg/kg/injection, schedule: Q01DX001 (ip), vehicle: carboxymethylcellulose (CMC)",102 % of control
